Laboratory results: patent US8048892B2, “Azaquinolone based compounds exhibiting prolyl hydroxylase inhibitory activity, compositions, and uses thereof” (Amgen Inc., priority 2006, dated 2011)
pIC50: −log10 of the molar value.

What follows are compounds tested against HIF PHD2 (Homo sapiens, UniProt Q9GZT9) (assay: PHD2 inhibition assay (TR-FRET, VCB-Eu detection of hydroxylated P564-HIF1α peptide)). Details: 2 nM PHD2, 100 nM P564-HIF1α peptide, 0.25 μM 2-oxoglutarate.
Sequence of HIF PHD2 (Q9GZT9 whole entry): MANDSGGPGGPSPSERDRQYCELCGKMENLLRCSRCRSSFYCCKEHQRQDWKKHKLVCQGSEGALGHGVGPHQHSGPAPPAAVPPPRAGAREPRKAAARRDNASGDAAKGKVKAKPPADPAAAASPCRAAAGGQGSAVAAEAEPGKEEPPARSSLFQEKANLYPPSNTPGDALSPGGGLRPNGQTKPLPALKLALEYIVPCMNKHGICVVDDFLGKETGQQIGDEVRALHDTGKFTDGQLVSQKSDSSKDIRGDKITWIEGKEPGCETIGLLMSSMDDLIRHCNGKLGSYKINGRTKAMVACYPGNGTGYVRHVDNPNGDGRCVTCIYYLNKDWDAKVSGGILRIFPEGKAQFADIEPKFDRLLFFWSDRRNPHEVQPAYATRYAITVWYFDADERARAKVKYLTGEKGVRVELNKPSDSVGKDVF
Type: biochemical
Description: Inhibition of HIF PHD2 activity was quantified utilizing the TR-FRET technology. HIF PHD2 catalyzes a hydroxyl modification on the proline residue of the P564-HIF1α peptide substrate (Biotin-DLEMLAPYIPMDDDFQL (SEQ ID NO: 7)) resulting in recognition and binding of the europylated Von Hippel-Lindau protein (pVHL), elongin B and elongin C heterotrimeric (VCB-Eu) complex.
The PHD2 inhibition assay was executed by addition of freshly dissolved FeCl2 to 178.57 μM (100 μM final concentration) in PHD2 Reaction Buffer containing 30 mM MES, pH 6, 10 mM NaCl, 0.25% Brij-35, 0.01% BSA, and 1% DMSO. 28 μL of the iron solution and 2 μL of inhibitor compounds serially diluted in 100% DMSO (5% DMSO final) were added to black polypropylene 96-well microtiter plates. To that, 10 μL of 10 nM PHD2 (2 nM final) was added to all wells of the plate except for the 8 wells of column 12 (LO control), and allowed to incubate at room temperature on the shaker for one hour. Column 6 was the HI control containing PHD2 enzyme and 5% DMSO vehicle, but no inhibitor compound. To initiate the PHD2 enzymatic reaction, 10 μL of a solution containing 500 nM P564-HIF1α peptide (100 nM final), 10 mM ascorbic acid (2 mM final), and 1.25 μM 2-oxoglutarate (α-ketoglutarate; 0.25 μM final) in PHD2 Reaction Buffer was added to all wells of the plate and allowed to incubate on the shaker at room temperature for one hour.
The reaction was terminated by addition of 25 μL TR-FRET Buffer (50 mM TRIS-HCl, pH 9, 100 mM NaCl, 0.05% BSA, and 0.5% Tween-20) containing 150 mM succinate (product inhibitor; 50 mM final), 75 nM streptavidin-APC (25 nM final), and 7.5 nM VCB-Eu (2.5 nM final). The TR-FRET detection reagents were placed on a shaker for 1 hour to reach binding equilibrium before reading on the Discovery platform (PerkinElmer). Europium is excited at 315 nm and phosphoresces at 615 nm with a large Stoke's shift. APC, in turn, emits at 655 nm upon excitation at 615 nm. The TR-FRET signal is measured as the ratio of the APC 655 nm signal divided by the internal europium reference 615 nm emission signal.
The POC (percentage of control) was determined by comparing the signal from hydroxylated peptide substrate in the enzyme reaction containing inhibitor compound with that from PHD2 enzyme with DMSO vehicle alone (HI control), and no enzyme (LO control). POC was calculated using the formula: % control (POC)=(cpd−average LO)/(average HI−average LO)*100. Data (consisting of POC and inhibitor concentration in μM) was fitted to a 4-parameter equation (y=A+((B−A)/(1+((x/C)^D))), where A is the minimum y (POC) value, B is the maximum y (POC), C is the x (cpd concentration) at the point of inflection and D is the slope factor) using a Levenburg-Marquardt non-linear regression algorithm.
`Cc1ccc(-c2ccc3c(O)c(C(=O)NCC(=O)O)c(=O)n(C)c3n2)cc1` [Example 15, N-((4-Hydroxy-1-methyl-7-(4-methylphenyl)-2-oxo-1,2-dihydro-1,8-naphthyridin-3-yl)carbonyl)glycine] showed a pIC50 of 6.30 to 7.00. With `COc1ccc(-c2ccc3c(O)c(C(=O)NCC(=O)O)c(=O)n(C)c3n2)cc1` [Example 16, N-((4-Hydroxy-1-methyl-7-(4-(methyloxy)phenyl)-2-oxo-1,2-dihydro-1,8-naphthyridin-3-yl)carbonyl)glycine] the pIC50 was 7.00 to 7.30. Work on `Cn1c(=O)c(C(=O)NCC(=O)O)c(O)c2ccc(-c3cccnc3)nc21` [Example 17, N-((4-Hydroxy-1-methyl-2-oxo-7-(3-pyridinyl)-1,2-dihydro-1,8-naphthyridin-3-yl)carbonyl)glycine] yielded a pIC50 of over 7.30. Work on `Cn1c(=O)c(C(=O)NCC(=O)O)c(O)c2ccc(C3CCCCC3)nc21` [Example 18, 2-(7-Cyclohexyl-4-hydroxy-1-methyl-2-oxo-1,2-dihydro-1,8-naphthyridine-3-carboxamido)acetic acid] yielded a pIC50 of 6.30 to 7.00. For `Cn1c(=O)c(C(=O)NCC(=O)O)c(O)c2ccc(C#C[Si](C)(C)C)nc21` [Example 19, 2-(4-Hydroxy-1-methyl-2-oxo-7-(2-(trimethylsilyl)ethynyl)-1,2-dihydro-1,8-naphthyridine-3-carboxamido)acetic acid], the pIC50 was 7.00 to 7.30. In the case of `C#Cc1ccc2c(O)c(C(=O)NCC(=O)O)c(=O)n(C)c2n1` [Example 20, 2-(7-Ethynyl-4-hydroxy-1-methyl-2-oxo-1,2-dihydro-1,8-naphthyridine-3-carboxamido)acetic acid], the pIC50 was over 7.30. `Cn1c(=O)c(C(=O)NCC(=O)O)c(O)c2ccc(C#CC3CC3)nc21` [Example 21, 2-(7-(2-Cyclopropylethynyl)-4-hydroxy-1-methyl-2-oxo-1,2-dihydro-1,8-naphthyridine-3-carboxamido)acetic acid] gave a pIC50 of over 7.30. `Cn1c(=O)c(C(=O)NCC(=O)O)c(O)c2ccc(N3CCCCC3)nc21` [Example 22, 2-(4-Hydroxy-1-methyl-2-oxo-7-(piperidin-1-yl)-1,2-dihydro-1,8-naphthyridine-3-carboxamido)acetic acid] showed a pIC50 of 7.00 to 7.30. In the case of `Cn1c(=O)c(C(=O)NCC(=O)O)c(O)c2ccc(N3CCOCC3)nc21` [Example 23, 2-(4-Hydroxy-1-methyl-7-morpholino-2-oxo-1,2-dihydro-1,8-naphthyridine-3-carboxamido)acetic acid], the pIC50 was 6.30 to 7.00. `Cn1c(=O)c(C(=O)NCC(=O)O)c(O)c2ccc(N3CCC(C(F)(F)F)CC3)nc21` [Example 24, 2-(4-Hydroxy-1-methyl-2-oxo-7-(4-(trifluoromethyl)piperidin-1-yl)-1,2-dihydro-1,8-naphthyridine-3-carboxamido)acetic acid] showed a pIC50 of 6.00 to 6.30. With `COc1ccc2c(O)c(C(=O)NCC(=O)O)c(=O)n(C)c2n1` [Example 25, 2-(4-Hydroxy-7-methoxy-1-methyl-2-oxo-1,2-dihydro-1,8-naphthyridine-3-carboxamido)acetic acid] the pIC50 was over 7.30. For `Cn1c(=O)c(C(=O)NCC(=O)O)c(O)c2cc(C3=CCOCC3)cnc21` [Example 26, 2-(6-(3,6-Dihydro-2 H-pyran-4-yl)-4-hydroxy-1-methyl-2-oxo-1,2-dihydro-1,8-naphthyridine-3-carboxamido)acetic acid], the pIC50 was 7.00 to 7.30. In the case of `Cc1ccnc(-c2cnc3c(c2)c(O)c(C(=O)NCC(=O)O)c(=O)n3C)n1` [Example 27, 2-(4-Hydroxy-1-methyl-6-(4-methylpyrimidin-2-yl)-2-oxo-1,2-dihydro-1,8-naphthyridine-3-carboxamido)acetic acid], the pIC50 was over 7.30. Compound `Cn1c(=O)c(C(=O)NCC(=O)O)c(O)c2cc(-c3nccc(C(F)(F)F)n3)cnc21` [Example 28] has a pIC50 of over 7.30. `COc1ccnc(-c2cnc3c(c2)c(O)c(C(=O)NCC(=O)O)c(=O)n3C)n1` [Example 29, 2-(4-Hydroxy-6-(4-methoxypyrimidin-2-yl)-1-methyl-2-oxo-1,2-dihydro-1,8-naphthyridine-3-carboxamido)acetic acid] showed a pIC50 of over 7.30. `Cc1cc(C)nc(-c2cnc3c(c2)c(O)c(C(=O)NCC(=O)O)c(=O)n3C)n1` [Example 30, 2-(6-(4,6-Dimethylpyrimidin-2-yl)-4-hydroxy-1-methyl-2-oxo-1,2-dihydro-1,8-naphthyridine-3-carboxamido)acetic acid] showed a pIC50 of 7.00 to 7.30. `Cn1c(=O)c(C(=O)NCC(=O)O)c(O)c2cc(-c3cc(Cl)ncn3)cnc21` [Example 31, 2-(6-(6-Chloropyrimidin-4-yl)-4-hydroxy-1-methyl-2-oxo-1,2-dihydro-1,8-naphthyridine-3-carboxamido)acetic acid] showed a pIC50 of over 7.30. With `Cn1c(=O)c(C(=O)NCC(=O)O)c(O)c2cc(-c3cccc(C(F)(F)F)n3)cnc21` [Example 32, N-((4-Hydroxy-1-methyl-2-oxo-6-(6-(trifluoromethyl)-2-pyridinyl)-1,2-dihydro-1,8-naphthyridin-3-yl)carbonyl)glycine] the pIC50 was 7.00 to 7.30. Compound `CN(C)c1ccccc1-c1cnc2c(c1)c(O)c(C(=O)NCC(=O)O)c(=O)n2C` [Example 33, 2-(6-(2-(Dimethylamino)phenyl)-4-hydroxy-1-methyl-2-oxo-1,2-dihydro-1,8-naphthyridine-3-carboxamido)acetic acid] has a pIC50 of 7.00 to 7.30. In the case of `Cn1c(=O)c(C(=O)NCC(=O)O)c(O)c2cc(C3CCOCC3)cnc21` [Example 34, 2-(4-Hydroxy-1-methyl-2-oxo-6-(tetrahydro-2 H-pyran-4-yl)-1,2-dihydro-1,8-naphthyridine-3-carboxamido)acetic acid], the pIC50 was over 7.30. For `Cc1ccccc1-c1cnc2c(c1)c(O)c(C(=O)NCC(=O)O)c(=O)n2C` [Example 35, N-((4-Hydroxy-1-methyl-6-(2-methylphenyl)-2-oxo-1,2-dihydro-1,8-naphthyridin-3-yl)carbonyl)glycine], the pIC50 was 7.00 to 7.30. Work on `CC(C)Oc1ccccc1-c1cnc2c(c1)c(O)c(C(=O)NCC(=O)O)c(=O)n2C` [Example 36, N-((4-Hydroxy-1-methyl-6-(2-((1-methylethyl)oxy)phenyl)-2-oxo-1,2-dihydro-1,8-naphthyridin-3-yl)carbonyl)glycine] yielded a pIC50 of 6.30 to 7.00. Work on `CC(C)Oc1ccc(-c2cnc3c(c2)c(O)c(C(=O)NCC(=O)O)c(=O)n3C)cc1` [Example 37, N-((4-Hydroxy-1-methyl-6-(4-((1-methylethyl)oxy)phenyl)-2-oxo-1,2-dihydro-1,8-naphthyridin-3-yl)carbonyl)glycine] yielded a pIC50 of 6.30 to 7.00. `CC(C)Oc1cccc(-c2cnc3c(c2)c(O)c(C(=O)NCC(=O)O)c(=O)n3C)c1` [Example 38, N-((4-Hydroxy-1-methyl-6-(3-((1-methylethyl)oxy)phenyl)-2-oxo-1,2-dihydro-1,8-naphthyridin-3-yl)carbonyl)glycine] showed a pIC50 of 6.30 to 7.00. Work on `Cn1c(=O)c(C(=O)NCC(=O)O)c(O)c2cc(-c3ccc4c(c3)CCO4)cnc21` [Example 39, N-((6-(2,3-Dihydro-1-benzofuran-5-yl)-4-hydroxy-1-methyl-2-oxo-1,2-dihydro-1,8-naphthyridin-3-yl)carbonyl)glycine] yielded a pIC50 of 7.00 to 7.30. In the case of `Cc1cccc(C)c1-c1cnc2c(c1)c(O)c(C(=O)NCC(=O)O)c(=O)n2C` [Example 40, N-((6-(2,6-Dimethylphenyl)-4-hydroxy-1-methyl-2-oxo-1,2-dihydro-1,8-naphthyridin-3-yl)carbonyl)glycine], the pIC50 was 6.30 to 7.00. In the case of `Cn1c(=O)c(C(=O)NCC(=O)O)c(O)c2cc(-c3ccccc3C(N)=O)cnc21` [Example 41, N-((6-(2-(Aminocarbonyl)phenyl)-4-hydroxy-1-methyl-2-oxo-1,2-dihydro-1,8-naphthyridin-3-yl)carbonyl)glycine], the pIC50 was 7.00 to 7.30. With `Cn1c(=O)c(C(=O)NCC(=O)O)c(O)c2cc(-c3ccccc3C(F)(F)F)cnc21` [Example 42, N-((4-Hydroxy-1-methyl-2-oxo-6-(2-(trifluoromethyl)phenyl)-1,2-dihydro-1,8-naphthrydin-3-yl)carbonyl)glycine] the pIC50 was 7.00 to 7.30. `Cn1c(=O)c(C(=O)NCC(=O)O)c(O)c2cc(-c3ccncc3)cnc21` [Example 43, 2-(4-Hydroxy-1-methyl-2-oxo-6-(pyridin-4-yl)-1,2-dihydro-1,8-naphthyridine-3-carboxamido)acetic acid] was tested, and the pIC50 was 6.30 to 7.00.
